Several values for one entry are separate records, joined by “and”; a condition that tells them apart may be missing. Identical values can stand only once.
Legend:
[1] = system: Th17 differentiation of CD4+ CD25− T cells; experiment: Th17 differentiation (IL-17+ IFNγ− cells) of T cells activated with TGFβ plus IL-6; assay type: cell-based, mouse
Protocol: Low doses of halofuginone (HF) were tested to determine the ability of HF to enhance Treg differentiation, while suppressing Th17 differentiation. Nave. CD4+ T cells (CD4+ CD25−) were isolated from the spleen and peripheral lymph nodes of C57B/6 mice. T cells were then activated using anti-CD3 (0.3 μg/ml) and anti-CD28 (0.5 μg/ml) antibodies either in media alone (row 1, 4), TGFβ alone (3 ng/ml—row 2, 5) or TGFβ (3 ng/ml) plus IL-6 (30 ng/ml) (row 3, 6). […] T cells were cultured for 3 days and CD25 and Foxp3 expression (Treg marker genes) was determine by FACS staining and flow cytometric analyses. Simultaneously, T cells were harvested and re-stimulated for 4 hours using phorbol myristic acetate (PMA; 10 nM), Ionomycin (1 μM) and cytokine secretion was prevented using brefeldin A (20 μg/ml). Following stimulation, the production of IL-17 and IFNγ were determined by intracellular staining and analyzed via flow cytometry.
The dose-response of HF on CD4+ T cell proliferation, activation (i.e. CD25 upregulation) and differentiation to Th1, Th2 and Th17 lineages were evaluated. Purified murine naïve CD4+ CD25− T cells were activated using anti-CD3 (0.3 μg/ml) and anti-CD28 (0.5 μg/ml) antibodies and varying amounts of HF was added to each T cell culture condition (1.25 nM-40 nM). CD4+ T cell proliferation was monitored by CFSE dilution on day 3-post activation and CD25 expression was evaluated by FACS staining 2 days after activation. For T cell differentiation experiments, naïve T cells were activated as above in the presence of Th1 (IL-12 (20 ng/ml) plus anti-IL-4 (10 μg/ml)), Th2 (IL-4 (50 ng/ml) plus anti-IFNγ (0.5 mg/ml)) or Th17 (TGFβ (3 ng/ml) plus IL-6 (30 ng/ml)) polarizing conditions plus titrating amounts of HF (1.25 nM-40 nM) or MAZ1310 (40 nM). The percentage of Th17 cells, (IL-17^+ IFNγ^−) was evaluated on day 3 following activation, whereas the abundance of Th1 cells (IFNγ^+ IL-4) and Th2 cells (IL-4^+ IFNγ^−) was determined 5 days following activation. All cytokine expression was determined by intracellular staining following PMA+Ionomycin+Brefeldin A re-stimulation and all data was normalized to control (MAZ1310)-treated cells. […] Biol., vol. 80:1-8 (2006).
Cytokines, antibodies and T cell culture: Purified CD4^+ CD25^− T cells were activated in vitro as previously described (I. M. Djuretic et al., Nat Immunol 8, 145 (2007)) using 0.3 μg/ml hamster anti-mouse CD3 (clone 145-2C11) (ATCC—Manassas, Va.) and 0.5 μg/ml hamster anti-mouse CD28 (BD Pharmingen, San Jose, Calif.). Activated cell cultures were differentiated using the following combinations of cytokines and antibodies: iTreg=recombinant human TGFβ1 (3 ng/ml; R&D systems, Minneapolis, Minn.), Th17βTGFβ1 (3 ng/ml) plus recombinant mouse IL-6 (30 ng/ml, R&D systems). Th1 and Th2 differentiation was performed as previously described. (I. M. Djuretic et al., Nat Immunol 8, 145 (2007)). Human IL-2 supernatant (National Cancer Institute) was used in culture at 0.01 U/ml and was added at 48 hours-post activation when T cells were split into tissue culture wells lacking CD3 and CD28 antibodies, with the exception of Th17 cultures that were maintained in the absence of IL-2. All reagents were added at the time of T cell activation and again at 48-hours post activation unless indicated otherwise. For some experiments, purified CD4^+ CD25^− T cells, CD8^+ T cells or B cells were labeled with 1 μM CFSE (Invitrogen) prior to activation in accordance with manufacturers instructions.
Detection of cytokine production: Cytokines secreted into media supernatant were measured using the mouse Th1/Th2 cytometric bead array (CBA, BD Pharmingen) in accordance with manufacturers instructions.

[2] = system: cultured fibroblasts; experiment: Non-specific effects on cultured fibroblasts; assay type: cell-based
Protocol: (§1) At concentrations over 80 nM, HF has a variety of non-specific effects on both T-cells and fibroblasts. […] At the recommended tolerated dose for chronic treatment (0.5 mg/day), plasma levels of HF were ˜0.5 ng/ml (1 nM). (de.Jonge et al., Eur J Cancer, vol. 42(12):1768-74 (2006)).

[3] = system: T-cells and fibroblasts; experiment: Effects on pro-inflammatory and pro-fibrotic gene expression in T-cells and fibroblasts in vitro; assay type: cell-based
Protocol: as §1
In T-cells and fibroblasts in vitro, HF has highly specific effects on pro-inflammatory and pro-fibrotic gene expression in a dose range of ˜2-40 nM. At doses>80 nM, non-specific effects on protein synthesis and cell proliferation are seen. The compositions are formulated to deliver a dosage of HF that will have specific effects on pro-inflammatory cytokine expression or ECM architecture in the 2-40 nM range, but keep the dosage below levels that can cause non-specific effects.

**Q.** Which results are given for `O=C(CC1NCCCC1O)Cn1cnc2cc(Br)c(Cl)cc2c1=O` (racemic) [HF, 7-bromo-6-chloro-3-[3-(3-hydroxy-2-piperidinyl)-2-oxopropyl]-4(3H)-quinazolinone]?
**A.** time of addition giving most pronounced inhibition of IL-17 expression, in words ([1]; 10 nM HF added at indicated times after activation): most pronounced when HF was added during a 12-hour window at the start of the culture period; effect on Il17 and Il17f mRNA expression, in words ([1]; 10 nM HF, 4 days, Th17 cytokine conditions): impaired expression of both Il17 and Il17f mRNA; IL-17 expression in T cells lacking Foxp3, in words ([1]; 10 nM HF, Foxp3 KO naïve CD4+ T cells, TGFβ plus IL-6): strongly repressed IL-17 expression; Th17 differentiation of T cells expressing STAT3C, in words ([1]; 10 nM HF, STAT3C-GFP+ cells): remained capable of differentiating into Th17 cells; Th17 differentiation of cells expressing YFP or no transgene, in words ([1]; 5-10 nM HF, TAT-Cre treated T cells): strongly impaired; fold lower doses for effects on Th17 differentiation versus general inhibition of T-cell proliferation and Th1/Th2 differentiation ([1]; FIG. 7): 5- to 10 fold and ~10 fold; Th17 differentiation in T cells transduced with RORγt-expressing versus empty retroviruses, in words ([1]; MIG.RORγt vs MIG): inhibited Th17 differentiation as effectively; IC50 ([1]; Mus musculus, T-cell, in vitro, read-out: concentration for 50% inhibition of Th17 cell development): ~3 nM; concentration window of specific inhibition of Th17 differentiation ([1]; exogenously added HF, TGFbeta in the presence of IL-6): 2 to 30 nM; concentration inhibiting protein synthesis and cell proliferation in fibroblast culture [2]: over 80 nM; signaling downstream of mTOR in fibroblasts, in words [2]: did not inhibit signaling downstream of mTOR; death of cultured fibroblasts, in words ([2]; doses up to 500 nM over 5 days): does not, however, cause death; dose range of highly specific effects on pro-inflammatory and pro-fibrotic gene expression [3]: 2 to 40 nM
